The test system of experiment [1] is Plasmodium vivax liver stage (primary human hepatocyte culture). The procedure: (§1)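 Dose-response of P. vivax liver stages in primary human hepatocytes, with 8 points (10 uM-[…], v1) or 12 points in duplicate (50 uM-280 pM, v2). Read-out is high-content imaging of schizont net growth area, hypnozoite quantity and hepatic nuclei. EC50 and CC20 (20% nuclei loss) were fitted in CDD Vault from the highest-quality independent experiment; toxic-dose bell-shaped points were masked. '>' marks the highest concentration with less than 50% activity, and ND means a non-sigmoidal curve.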

In experiment [2] the test system is primary human hepatocytes. The experiment can be described thus: CC20 hepatic nuclei (20% reduction); higher = less toxic. The method, then: as §1
The test system of experiment [3] is Plasmodium vivax liver stage (primary human hepatocyte culture). Nature of the experiment: maximum inhibition of schizont net growth area; higher = more active. The procedure:
as §1

The mark [4] stands for this setting: P. vivax isolate: Pv923, hepatocyte lot: BGW, assay mode: Radical Cure, 8-day (treatment from day 5 post-infection).
Where [5] appears, read: P. vivax isolate: Pv836, hepatocyte lot: BGW, assay mode: Radical Cure, 8-day (treatment from day 5 post-infection).
Where [6] appears, read: P. vivax isolate: Pv728, hepatocyte lot: BGW, assay mode: Radical Cure, 8-day (treatment from day 5 post-infection).
[7] abbreviates: P. vivax isolate: Pv922, hepatocyte lot: BGW, assay mode: Radical Cure, 8-day (treatment from day 5 post-infection).
Where [8] appears, read: P. vivax isolate: Pv756, hepatocyte lot: BGW, assay mode: Radical Cure, 8-day (treatment from day 5 post-infection).
Where [9] appears, read: P. vivax isolate: Pv668, hepatocyte lot: BGW, assay mode: Radical Cure, 8-day (treatment from day 5 post-infection).
[10] abbreviates: P. vivax isolate: Pv914, hepatocyte lot: BGW, assay mode: Prophylactic, 6-day.
Where [11] appears, read: P. vivax isolate: Pv357, hepatocyte lot: UBV, assay mode: Radical Cure, 8-day (treatment from day 5 post-infection).
Setting [12] is: P. vivax isolate: Pv360, hepatocyte lot: UBV, assay mode: Radical Cure, 8-day (treatment from day 5 post-infection).

Counter-ions that a name gives are not always drawn.

Experimental findings from the supplement of paper PMC8497498 are described below.

In the case of `O=C(Nc1ccc(N2CCNCC2)cc1)c1ccn2ncc(-c3cccc(Cl)c3)c2n1`, in experiment [1] (setting [4]), the EC50 hypnozoite quantity is > 50 µM and the “EC50 schizont net growth area” value is > 50 µM. For the same compound, the CC20 hepatic nuclei in experiment [2] (setting [4]) was > 1.85 µM. Further, the maximum inhibition in experiment [3] (setting [4]) amounted to 45.8%.
For `Cn1c(Sc2ncnc3sccc23)nc2ccccc21`, in experiment [1] (setting [5]), the EC50 hypnozoite quantity was > 50 µM and the “EC50 schizont net growth area” value is > 16.7 µM. Also, in experiment [2] (setting [5]), the CC20 hepatic nuclei turned out to be 39.4 µM. The maximum inhibition in experiment [3] (setting [5]) was found to be 97%.
With `O=C(Nc1cccnn1)N1CCC(=Cc2cccc(Oc3ccc(C(F)(F)F)cn3)c2)CC1`, in experiment [1] (setting [6]), the EC50 hypnozoite quantity was > 10 µM and the “EC50 schizont net growth area” value was 1.23 µM. Also, the CC20 hepatic nuclei in experiment [2] (setting [6]) was > 10 µM. Besides, the maximum inhibition in experiment [3] (setting [6]) was determined as 99%.
Take `O=C(Nc1cc(C(F)(F)F)cc(C(F)(F)F)c1)Nc1ccc(Cl)c(Cl)c1`: in experiment [1] (setting [7]), the EC50 hypnozoite quantity is > 50 µM. Moreover, the CC20 hepatic nuclei in experiment [2] (setting [7]) is > 5.56 µM. Also, the maximum inhibition in experiment [3] (setting [7]) was 51.2%.
Turning to `NS(=O)(=O)c1cccc(-c2ccc3ncc(N4CCOCC4)nc3c2)c1`, in experiment [1] (setting [8]), the EC50 hypnozoite quantity was > 50 µM and the “EC50 schizont net growth area” value came to 0.57 µM. Also, in experiment [2] (setting [8]), the CC20 hepatic nuclei is > 50 µM. The maximum inhibition in experiment [3] (setting [8]) is 88.2%.
For `N=c1n(CCN2CCCCC2)c2ccccc2n1CC(O)c1cccc(Br)c1` (stereo not given), in experiment [1] (setting [6]), the EC50 hypnozoite quantity is > 50 µM and the “EC50 schizont net growth area” value is > 16.7 µM. For the same compound, the CC20 hepatic nuclei in experiment [2] (setting [6]) came out at 41.8 µM. In addition, the maximum inhibition in experiment [3] (setting [6]) came to 111%.
Turning to `Oc1c(C(c2ccncc2)N2CCCC2)ccc2cccnc12` (stereo not given), the EC50 hypnozoite quantity in experiment [1] (setting [9]) is > 50 µM. Further, the CC20 hepatic nuclei in experiment [2] (setting [9]) was > 50 µM. Also, the maximum inhibition in experiment [3] (setting [9]) is 80.2%.
As to `c1ccn2c(Sc3ncnc4sccc34)ncc2c1`, in experiment [1] (setting [5]), the EC50 hypnozoite quantity is > 50 µM and the “EC50 schizont net growth area” value was > 5.56 µM. The same compound had a CC20 hepatic nuclei in experiment [2] (setting [5]) of 41.4 µM. The maximum inhibition in experiment [3] (setting [5]) came out at 69.4%.
As for `CN(Cc1cnc2nc(N)nc(N)c2n1)c1ccc(C(=O)N[C@@H](CCC(=O)O)C(=O)O)cc1` (racemic) [Methotrexate (+/-)], in experiment [1] (setting [10]), the EC50 hypnozoite quantity was > 10 µM and the “EC50 schizont net growth area” value was found to be 0.0428 µM. For the same compound, in experiment [2] (setting [10]), the CC20 hepatic nuclei was > 10 µM. The maximum inhibition in experiment [3] (setting [10]) stood at 99.1%.
As for `c1cc(C2CCC3(CC2)OOC2(O3)C3CC4CC(C3)CC2C4)ccc1OCCN1CCOCC1` (stereo not given) [Artefenomel, OZ439], in experiment [1] (setting [6]), the EC50 hypnozoite quantity was > 50 µM and the “EC50 schizont net growth area” value was determined as 6.89 µM. In addition, the CC20 hepatic nuclei in experiment [2] (setting [6]) was > 16.7 µM. Further, the maximum inhibition in experiment [3] (setting [6]) worked out at 80.3%.
Regarding `CC(C)(N)CNC(=O)CC1CCC2(CC1)OOC1(O2)C2CC3CC(C2)CC1C3` (stereo not given) [Arterolane, OZ277], in experiment [1] (setting [11]), the EC50 hypnozoite quantity is > 10 µM and the “EC50 schizont net growth area” value is > 10 µM. In addition, in experiment [2] (setting [11]), the CC20 hepatic nuclei is > 10 µM. In addition, the maximum inhibition in experiment [3] (setting [11]) came to 51.4%.
With `CC[C@H]1OC(=O)[C@H](C)C(=O)[C@H](C)[C@@H](O[C@@H]2O[C@H](C)C[C@H](N(C)C)[C@H]2O)[C@](C)(OCC=Cc2cnc3ccccc3c2)C[C@@H](C)C(=O)[C@H](C)[C@H]2N=C(O)O[C@@]21C` [Cethromycin], the EC50 hypnozoite quantity in experiment [1] (setting [10]) was > 10 µM. The CC20 hepatic nuclei in experiment [2] (setting [10]) is > 10 µM. Moreover, in experiment [3] (setting [10]), the maximum inhibition was found to be 63.3%.
For the compound `CCN(CC)CCCC(C)Nc1ccnc2cc(Cl)ccc12` (stereo not given) [Chloroquine Diphosphate], in experiment [1] (setting [10]), the EC50 hypnozoite quantity is > 16.7 µM and the “EC50 schizont net growth area” value was > 5.56 µM. For the same compound, the CC20 hepatic nuclei in experiment [2] (setting [10]) is > 16.7 µM. Besides, the maximum inhibition in experiment [3] (setting [10]) was determined as 99.1%.
On to `O=C(O)c1cn(C2CC2)c2cc(N3CCNCC3)c(F)cc2c1=O` [Ciprofloxacin], for which, in experiment [1] (setting [6]), the EC50 hypnozoite quantity is > 10 µM and the “EC50 schizont net growth area” value is > 10 µM. Besides, the CC20 hepatic nuclei in experiment [2] (setting [6]) is > 10 µM. Moreover, the maximum inhibition in experiment [3] (setting [6]) was 59.2%.
Regarding `CCC[C@@H]1C[C@@H](C(=O)N[C@@H]([C@H]2O[C@H](SC)[C@H](O)[C@@H](O)[C@H]2O)[C@H](C)Cl)N(C)C1` [Clindamycin hydrochloride], in experiment [1] (setting [10]), the EC50 hypnozoite quantity is > 50 µM and the “EC50 schizont net growth area” value amounted to 0.00597 µM. Further, the CC20 hepatic nuclei in experiment [2] (setting [10]) is > 50 µM. In addition, in experiment [3] (setting [10]), the maximum inhibition was found to be 79.5%.
As to `CC1CC(C)C(=O)C(C(O)CC2CC(=O)NC(=O)C2)C1` (stereo not given) [Cycloheximide], the EC50 hypnozoite quantity in experiment [1] (setting [12]) is > 10 µM; in experiment [1] (setting [10]), > 3.33 µM. Further, the results for the “EC50 schizont net growth area” value in experiment [1] (setting [12]) and in experiment [1] (setting [10]) were 0.0856 µM and 1.39 µM, respectively. The CC20 hepatic nuclei in experiment [2] (setting [12]) and in experiment [2] (setting [10]) was > 10 µM in each case. Besides, the maximum inhibition stood at 96.3% in experiment [3] (setting [12]) and 99.6% in experiment [3] (setting [10]).
